The NIST ThermoML archive (doi:10.1016/j.jct.2006.03.010)

Assay: xn = mol fraction of the nth substance listed
Conditions: 101 kPa, Liquid; for speed of sound: Linear variable-path acoustic interferometer

ClC(Cl)Cl [trichloromethane] + CCCCO
Conditions | mass density, 298.15 K [kg/m3] | mass density, 308.15 K [kg/m3] | speed of sound, 298.15 K [m/s] | speed of sound, 308.15 K [m/s] | viscosity, 298.15 K [mPa·s] | viscosity, 308.15 K [mPa·s]
x1 = 0.0512 | 836.7 | 828.27 | 1215 | 1190 | 2.407 | 1.883
x1 = 0.1 | 865.9 | 857 | 1198 | 1171 | 2.248 | 1.764
x1 = 0.149 | 895.66 | 886.25 | 1180 | 1153 | 2.056 | 1.628
x1 = 0.2009 | 927.49 | 917.55 | 1163 | 1134 | 1.872 | 1.501
x1 = 0.2506 | 958.3 | 947.84 | 1146 | 1116 | 1.705 | 1.372
x1 = 0.2999 | 989.27 | 978.3 | 1130 | 1099 | 1.543 | 1.26
x1 = 0.3659 | 1031.4 | 1019.75 | 1110 | 1078 | 1.351 | 1.114
x1 = 0.407 | 1057.94 | 1045.83 | 1097 | 1065 | 1.245 | 1.035
x1 = 0.4515 | 1087.02 | 1074.42 | 1085 | 1051 | 1.139 | 0.957
x1 = 0.4997 | 1118.91 | 1105.67 | 1071 | 1037 | 1.041 | 0.886
x1 = 0.5502 | 1152.78 | 1138.99 | 1058 | 1024 | 0.945 | 0.815
x1 = 0.6012 | 1187.46 | 1173.05 | 1045 | 1011 | 0.877 | 0.76
x1 = 0.6527 | 1223.02 | 1207.99 | 1033 | 998 | 0.804 | 0.71
x1 = 0.7021 | 1257.69 | 1241.99 | 1022 | 987 | 0.755 | 0.67
x1 = 0.7519 | 1293.2 | 1276.84 | 1013 | 978 | 0.715 | 0.643
x1 = 0.8021 | 1329.4 | 1312.4 | 1004 | 969 | 0.67 | 0.607
x1 = 0.8518 | 1365.91 | 1348.31 | 997 | 962 | 0.654 | 0.595
x1 = 0.9024 | 1403.63 | 1385.4 | 992 | 956 | 0.614 | 0.565
x1 = 0.951 | 1440.79 | 1421.97 | 987 | 952 | 0.596 | 0.546
x1 = 1 | 1478.82 | 1459.45 | 985 | 950 | 0.556 | 0.513

ClC(Cl)Cl [trichloromethane] + CCCO
Conditions | mass density, 298.15 K [kg/m3] | mass density, 308.15 K [kg/m3] | speed of sound, 298.15 K [m/s] | speed of sound, 308.15 K [m/s] | viscosity, 298.15 K [mPa·s] | viscosity, 308.15 K [mPa·s]
x1 = 0.0521 | 838.68 | 829.81 | 1190 | 1155 | 1.84 | 1.452
x1 = 0.0995 | 872.8 | 863.45 | 1171 | 1136 | 1.734 | 1.373
x1 = 0.1503 | 909.09 | 899.13 | 1153 | 1117 | 1.611 | 1.283
x1 = 0.2009 | 944.84 | 934.26 | 1136 | 1099 | 1.492 | 1.196
x1 = 0.2497 | 979.01 | 967.92 | 1119 | 1082 | 1.374 | 1.111
x1 = 0.3057 | 1017.84 | 1006.01 | 1102 | 1064 | 1.235 | 1.011
x1 = 0.3499 | 1048.26 | 1036.01 | 1089 | 1052 | 1.155 | 0.952
x1 = 0.4031 | 1084.7 | 1071.81 | 1074 | 1036 | 1.049 | 0.886
x1 = 0.4509 | 1117.15 | 1103.72 | 1061 | 1023 | 0.968 | 0.818
x1 = 0.5055 | 1154.04 | 1139.98 | 1046 | 1009 | 0.885 | 0.76
x1 = 0.554 | 1186.48 | 1171.86 | 1035 | 998 | 0.822 | 0.714
x1 = 0.5994 | 1216.69 | 1201.5 | 1025 | 988 | 0.776 | 0.679
x1 = 0.651 | 1250.99 | 1235.18 | 1015 | 977 | 0.727 | 0.647
x1 = 0.7033 | 1285.41 | 1269.07 | 1006 | 968 | 0.705 | 0.618
x1 = 0.7505 | 1316.56 | 1299.61 | 999 | 961 | 0.666 | 0.602
x1 = 0.7999 | 1348.87 | 1331.42 | 993 | 955 | 0.64 | 0.585
x1 = 0.8507 | 1382.01 | 1363.98 | 987 | 950 | 0.625 | 0.572
x1 = 0.9002 | 1414.19 | 1395.63 | 984 | 947 | 0.605 | 0.557
x1 = 0.9484 | 1445.46 | 1426.51 | 983 | 947 | 0.586 | 0.539
x1 = 1 | 1478.82 | 1459.45 | 985 | 950 | 0.556 | 0.513

ClC(Cl)Cl [trichloromethane] + CCO
Conditions | mass density, 298.15 K [kg/m3] | mass density, 308.15 K [kg/m3] | speed of sound, 298.15 K [m/s] | speed of sound, 308.15 K [m/s] | viscosity, 298.15 K [mPa·s] | viscosity, 308.15 K [mPa·s]
x1 = 0.0522 | 834.86 | 824.87 | 1129 | 1092 | 1.085 | 0.902
x1 = 0.1007 | 879.76 | 868.7 | 1114 | 1076 | 1.07 | 0.89
x1 = 0.1468 | 920.98 | 909.11 | 1101 | 1062 | 1.043 | 0.869
x1 = 0.2014 | 968.01 | 955.3 | 1085 | 1046 | 1.003 | 0.836
x1 = 0.2505 | 1008.24 | 994.85 | 1071 | 1034 | 0.956 | 0.803
x1 = 0.3005 | 1047.8 | 1033.7 | 1057 | 1022 | 0.901 | 0.764
x1 = 0.3491 | 1084.58 | 1069.92 | 1045 | 1011 | 0.86 | 0.732
x1 = 0.3999 | 1121.8 | 1106.5 | 1033 | 1000 | 0.809 | 0.696
x1 = 0.4505 | 1157.08 | 1141.59 | 1021 | 991 | 0.767 | 0.665
x1 = 0.5045 | 1193.09 | 1177.49 | 1011 | 982 | 0.73 | 0.64
x1 = 0.5509 | 1223.51 | 1207.46 | 1003 | 975 | 0.694 | 0.613
x1 = 0.6007 | 1254.55 | 1238.37 | 996 | 967 | 0.668 | 0.596
x1 = 0.6492 | 1284.3 | 1267.81 | 990 | 962 | 0.644 | 0.58
x1 = 0.7008 | 1314.71 | 1297.8 | 985 | 957 | 0.629 | 0.569
x1 = 0.7496 | 1342.79 | 1325.84 | 982 | 953 | 0.615 | 0.562
x1 = 0.8059 | 1374.26 | 1357.1 | 981 | 950 | 0.601 | 0.551
x1 = 0.8544 | 1400.99 | 1383.35 | 980 | 949 | 0.596 | 0.549
x1 = 0.8994 | 1425.35 | 1407.35 | 981 | 949 | 0.588 | 0.544
x1 = 0.9498 | 1452.14 | 1433.5 | 983 | 948 | 0.576 | 0.531
x1 = 1 | 1478.82 | 1459.45 | 985 | 950 | 0.556 | 0.513

ClC(Cl)Cl [trichloromethane] + CO
Conditions | mass density, 298.15 K [kg/m3] | mass density, 308.15 K [kg/m3] | speed of sound, 298.15 K [m/s] | speed of sound, 308.15 K [m/s] | viscosity, 298.15 K [mPa·s] | viscosity, 308.15 K [mPa·s]
x1 = 0.0501 | 852.42 | 842 | 1080 | 1048 | 0.587 | 0.523
x1 = 0.0959 | 907.6 | 896.56 | 1060 | 1029 | 0.612 | 0.545
x1 = 0.1501 | 967.31 | 955.55 | 1041 | 1010 | 0.635 | 0.564
x1 = 0.2007 | 1018.13 | 1005.77 | 1028 | 997 | 0.651 | 0.576
x1 = 0.2499 | 1063.89 | 1050.91 | 1017 | 986 | 0.657 | 0.584
x1 = 0.3015 | 1107.99 | 1094.32 | 1007 | 976 | 0.663 | 0.586
x1 = 0.3502 | 1146.56 | 1132.48 | 1000 | 969 | 0.66 | 0.588
x1 = 0.3966 | 1180.85 | 1166.26 | 994 | 963 | 0.658 | 0.584
x1 = 0.4498 | 1217.39 | 1202.34 | 989 | 958 | 0.651 | 0.582
x1 = 0.5047 | 1252.37 | 1236.78 | 984 | 954 | 0.641 | 0.572
x1 = 0.5506 | 1279.51 | 1263.63 | 981 | 950 | 0.633 | 0.569
x1 = 0.6033 | 1308.68 | 1292.64 | 979 | 948 | 0.619 | 0.56
x1 = 0.6515 | 1333.97 | 1317.33 | 977 | 946 | 0.612 | 0.552
x1 = 0.7032 | 1359.31 | 1342.39 | 976 | 945 | 0.601 | 0.55
x1 = 0.751 | 1381.31 | 1363.96 | 976 | 944 | 0.592 | 0.536
x1 = 0.7987 | 1402.09 | 1384.31 | 976 | 944 | 0.583 | 0.531
x1 = 0.85 | 1423.32 | 1405.26 | 977 | 945 | 0.574 | 0.523
x1 = 0.902 | 1443.49 | 1425.07 | 979 | 946 | 0.567 | 0.516
x1 = 0.9505 | 1461.44 | 1442.54 | 982 | 948 | 0.561 | 0.515
x1 = 1 | 1478.82 | 1459.45 | 985 | 950 | 0.556 | 0.513
